Measured values taken from patent US9265735B2, “Methods for screening to identify therapeutic agents for Alzheimer's disease and use thereof” (New York University, priority 2010, dated 2016).
“Also recorded” adds a separate entry of the source.

Key:
WT and PS1 KO cells = assay: Intracellular protein degradation (pulse-chase, [3H]-leucine) in WT and PS1 KO blastocysts; format: cell-based, Murine; conditions: serum withdrawal, NH4Cl 20 mM, 3MA 10 mM
Experimental: (§1) Total protein degradation in cultured cells was measured by pulse-chase experiments (Auteri et al., 1983, J Cell Physiol 115, 167-174). Confluent cells were labeled with [^3H]-leucine (2 μCi/ml) for 48 hrs at 37° C. in order to preferentially label long-lived proteins. Following labeling, cells were extensively washed and maintained in complete medium (DMEM+10% fetal bovine serum), under which conditions autophagy is suppressed, or in serum-deprived medium, where autophagy is induced. Under both conditions, after washing the cells, the medium was supplemented with unlabeled 2.8 mM leucine to prevent [^3H]-leucine reincorporation into newly synthesized proteins. Aliquots of the medium taken at different time-points were precipitated with 10% TCA, filtered using a 0.22 μm pore membrane and radioactivity in the flow-through was measured. Proteolysis is expressed as the percentage of the initial acid-precipitable radioactivity (protein) transformed to acid-soluble radioactivity (amino acids and small peptides) over time. To inhibit autophagy in this system, 20 mM NH4Cl or 10 mM 3MA was added immediately after the labeling period and maintained at that concentration throughout the chase. […] Protein synthesis was determined as the incorporation of [^3H]leucine into acid-insoluble material in the presence of an excess (2.8 mM) unlabeled leucine in the medium. […]

PS1KO blastocysts = assay: Lysosomal pH measurement with Dextran conjugated Lysosensor Yellow/Blue in PS1KO cells; format: cell-based, Murine; conditions: for effect of pretreatment on the action of isoproterenol on lysosomal pH / effect on elevated lysosomal pH in PS1KO cells: PS1KO cells; for effect of pretreatment on the action of isoproterenol on lysosomal pH: pretreatment before isoproterenol, FIG. 10F; for effect on elevated lysosomal pH in PS1KO cells: FIG. 10A/G; for lysosomal pH after treatment relative to WT lysosomal pH (ANOVA, Dunnet's post-test): PS1KO blastocysts, FIG. 11
Experimental: For results presented in Example 1, quantification of lysosomal pH was determined using Dextran conjugated Lysosensor Yellow/Blue DND-160 (Invitrogen) as follows. Wild Type and PS1KO blastocysts were grown in High Glucose DMEM+15% FBS with antibiotics to ˜90% confluency. Cells were then trypsinized, harvested (1×10^6 cells/ml) and loaded with 1 mg/ml of Lysosensor-dextran for 1 hour at 37° C. with 5% CO2. The cells were then washed 3× in HBSS and aliquoted at […] into a black 96-well microplate. pH calibration was performed according to the protocol established by Diwu et al (Diwu et al., (1999). Chem Biol 6, 411-418). Briefly, wild type and PS1KO blastocysts were treated with 10 μM monensin and 10 uM nigericin in MES buffer (5 mM NaCl, 115 mM KCL, 1.3 mM MgSO4, 25 mM MES), with the pH adjusted to a range from 3.5-7.0. The samples were read in a Wallac Victor 2 fluorimeter (Perkin Elmer) with excitation at 355 nm. The ratio of emission 440/535 nm was then calculated for each sample. The pH values were determined from the linear standard curve generated via the pH calibration samples.
In a more particular embodiment, quantification of lysosomal pH is determined using Dextran conjugated Lysosensor Yellow/Blue (Invitrogen) as follows. 3000 Wild Type and PS1KO blastocysts were seeded in multiple wells of black, clear bottom tissue culture treated 96 well dish and grown in High Glucose DMEM+15% FBS with antibiotics to ˜90% confluency (˜24 hours). 2 ul of 0.5 mg/ml lysosensor-dextran (1:100 dilution of a 5 mg/ml stock) was added and incubated for 1 hour at 37° C. with 5% CO2. The cells were then washed 3× in HBSS. See also methods and results set forth herein below in Example 2. This modified protocol represents an optimized protocol for the purposes set forth herein.
(§2) Quantification of lysosomal pH was determined using Dextran conjugated Lysosensor Yellow/Blue (Invitrogen). 3000 Wild Type and PS1KO blastocysts were seeded in multiple wells of black, clear bottom tissue culture treated 96 well dish and grown in High Glucose DMEM+15% FBS with antibiotics to ˜90% confluency (˜24 hours). 2 ul of 0.5 mg/ml lysosensor-dextran (1:100 dilution of a 5 mg/ml stock) was added and incubated for 1 hour at 37° C. with 5% CO2. The cells were then washed 3× in HBSS.
Performed according to the protocol established by Diwu et al (supra). Briefly, wild type and PS1KO blastocysts were treated with 10 uM monensin and 10 uM nigericin in MES buffer (5 mM NaCl, 115 mM KCL, 1.3 mM MgSO4, 25 mM MES), with the pH adjusted to a range from 3.5-7.0 for 7-10 min prior to lysosensor addition (the additional hour in the buffer seems to have no effect), these cells are not washed in HBSS since permeabilization with ionophores makes them susceptible to detachment.
(§3) The samples were read in a Wallac Victor 2 fluorimeter (Perkin Elmer) with excitation at 355 nm. The ratio of emission 440 nm/535 nm was then calculated for each sample. pH values were determined from the linear std curve generated via the pH calibration samples.

Cat B [1] = assay: MR-Cat B signal in WT cells; format: cell-based, Murine; conditions: NH4Cl treated WT cells
Experimental: (§4) Immunocytochemistry was performed as previously described (Yu et al., 2005). Secondary antibodies used were from Invitrogen: goat anti-mouse/rabbit/rat Alexa Fluor 488 and goat anti-mouse/rabbit/rat Alexa Fluor 568. Cells were imaged using a plan-Apochromat 40× or 100×/1.4 oil DIC objective lens on the laser scanning confocal microscope, LSM 510 META, with LSM software v3.5 (Carl Zeiss MicroImaging Inc). Images were analysed using ImageJ program (NIH). Organelles with low internal pH were labeled by LysoTracker DND-99 dye (Invitrogen) at the final 100 nM for 30 min. Following 4% PFA fixation, cells were further counter stained with Cat D, LMAP1, or LC3 antibody for 4 hrs then visualized with Alexa Fluor 488 conjugated secondary antibody. Active Cat D was labeled by adding Bodipy-FL-pepstatin A directly to the medium at a final concentration of 1 μg/ml for 1 hr. Following 4% PFA fixation, cells were counter stained with Cat D antibody for 4 hrs and visualized with Alexa Fluor 568 conjugated secondary antibody. […] Cells were incubated for 30 min with MR-Cathepsin B prior to mounting them under the confocal microscope. […]
(§5) Active Cat D was labeled by adding Bodipy-FL-pepstatin A directly to the medium at a final concentration of 1 mg/ml for 1 hr. […] Cat B staining with MagicRed-Cathepsin B was also measured fluorometrically with a Wallac Victor 2 fluorometer.

[2] = test system: PS1-FAD human fibroblasts; assay: Intracellular protein degradation (pulse-chase) in control and PS1-FAD fibroblasts; format: cell-based; conditions: serum withdrawal; NH4Cl treatment
Experimental: as §1

Cat D = biological target: T1, Cat D (Mus musculus, UniProt P18242); assay: Active Cat D labeling with Bodipy-FL-pepstatin A in WT cells; format: cell-based, Murine; conditions: NH4Cl
T1 construct: endogenous in cells; host or cells: WT murine blastocyst cells (BD6)
Experimental: Immunocytochemistry was performed as previously described (Yu et al., 2005). Secondary antibodies used were from Invitrogen: goat anti-mouse/rabbit/rat Alexa Fluor 488 and goat anti-mouse/rabbit/rat Alexa Fluor 568. Cells were imaged using a plan-Apochromat 40× or 100×/1.4 oil DIC objective lens on the laser scanning confocal microscope, LSM 510 META, with LSM software v3.5 (Carl Zeiss MicroImaging Inc). Images were analysed using ImageJ program (NIH). Organelles with low internal pH were labeled by LysoTracker DND-99 dye (Invitrogen) at the final 100 nM for 30 min. Following 4% PFA fixation, cells were further counter stained with Cat D, LMAP1, or LC3 antibody for 4 hrs then visualized with Alexa Fluor 488 conjugated secondary antibody. Active Cat D was labeled by adding Bodipy-FL-pepstatin A directly to the medium at a final concentration of 1 μg/ml for 1 hr. Following 4% PFA fixation, cells were counter stained with Cat D antibody for 4 hrs and visualized with Alexa Fluor 568 conjugated secondary antibody. […] Cells were incubated for 30 min with MR-Cathepsin B prior to mounting them under the confocal microscope. To block v-ATPase proton pump activity, ammonium chloride (NH4Cl) was added directly to the medium at a final concentration of 20 mM for 6 hrs prior to LysoTracker addition.

WT blastocysts = assay: Validation of lysosomal pH measurement in WT blastocysts; format: cell-based, Murine; conditions: FIG. 9A
Experimental: as §2
Performed according to the protocol established by Diwu et al (supra). […]
as §3
At the outset, the validity of the method described herein to measure lysosomal pH is confirmed. See, for example, FIG. 9A-D. More particularly, to assess the validity of the method of quantifying lysosomal pH, WT blastocysts were treated with chloroquine (CQ), which is known to elevate lysosomal pH. […]

[3] = in vivo; cited from earlier work
LC3-II = LC3-II levels by immunoblot / LC3 puncta in WT and PS1 KO cells; format: cell-based, Murine; conditions: 6 hrs
Experimental: (§6) Immunoblotting was performed as previously described (Yu et al., 2005). Briefly, cells used for Western blot analysis were lysed in buffer containing 50 mM Tris (pH=7.4), 150 mM NaCl, 1 mM EDTA, 1 mM EGTA, 1% Triton X-100 and 0.5% Tween-20 with protease and phosphatase inhibitors. Following electrophoresis on 4-20% gradient gel (Invitrogen), proteins were transferred onto 0.45 μm PVDF membranes (Millipore) and the membrane was incubated overnight in primary antibody then incubated with HRP conjugated secondary antibody. The blot was developed by ECL-kit (GE Healthcare). To assess v-ATPase V0a subunit glycosylation, lysate from WT and PS1KO cells were either treated for 24 hrs at 37° C. with PNGase F or O-glycanase using an enzymatic deglycosylation kit according to the manufacturer's instructions (PROzyme) or with Endo H (New England Biolabs) for 24 hrs at 37° C. Total glycoproteins were isolated using Glycoprotein Isolation Kit, ConA according to the manufacturer's instructions (Thermo Scientific).
Immunocytochemistry was performed as previously described (Yu et al., 2005). Secondary antibodies used were from Invitrogen: goat anti-mouse/rabbit/rat Alexa Fluor 488 and goat anti-mouse/rabbit/rat Alexa Fluor 568. […] Images were analysed using ImageJ program (NIH). […]

Cat B [4] = assay: Cat B activity by MagicRed-Cathepsin B (MR-Cat B) in PS1KO cells; format: cell-based, Murine; conditions: PS1 KO cells
Experimental: as §4, §5

v-ATPase V0a1 subunit = assay: v-ATPase V0a1 glycosylation state in WT cells (immunoblot); format: cell-based, Murine; conditions: 100-kDa with vs 120-kDa without tunicamycin
Experimental: as §6

T1 sequence (P18242 65-410): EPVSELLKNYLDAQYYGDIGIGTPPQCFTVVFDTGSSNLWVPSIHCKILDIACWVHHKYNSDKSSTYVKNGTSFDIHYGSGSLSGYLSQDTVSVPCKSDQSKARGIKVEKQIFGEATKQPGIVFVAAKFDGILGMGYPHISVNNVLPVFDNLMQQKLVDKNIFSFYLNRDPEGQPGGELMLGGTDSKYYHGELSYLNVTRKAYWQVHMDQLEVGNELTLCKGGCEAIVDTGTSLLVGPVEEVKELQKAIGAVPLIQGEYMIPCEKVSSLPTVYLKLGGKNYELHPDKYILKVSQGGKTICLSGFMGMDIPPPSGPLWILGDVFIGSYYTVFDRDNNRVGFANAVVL
v-ATPase V0a1 subunit, sequence (Q9Z1G4 whole entry): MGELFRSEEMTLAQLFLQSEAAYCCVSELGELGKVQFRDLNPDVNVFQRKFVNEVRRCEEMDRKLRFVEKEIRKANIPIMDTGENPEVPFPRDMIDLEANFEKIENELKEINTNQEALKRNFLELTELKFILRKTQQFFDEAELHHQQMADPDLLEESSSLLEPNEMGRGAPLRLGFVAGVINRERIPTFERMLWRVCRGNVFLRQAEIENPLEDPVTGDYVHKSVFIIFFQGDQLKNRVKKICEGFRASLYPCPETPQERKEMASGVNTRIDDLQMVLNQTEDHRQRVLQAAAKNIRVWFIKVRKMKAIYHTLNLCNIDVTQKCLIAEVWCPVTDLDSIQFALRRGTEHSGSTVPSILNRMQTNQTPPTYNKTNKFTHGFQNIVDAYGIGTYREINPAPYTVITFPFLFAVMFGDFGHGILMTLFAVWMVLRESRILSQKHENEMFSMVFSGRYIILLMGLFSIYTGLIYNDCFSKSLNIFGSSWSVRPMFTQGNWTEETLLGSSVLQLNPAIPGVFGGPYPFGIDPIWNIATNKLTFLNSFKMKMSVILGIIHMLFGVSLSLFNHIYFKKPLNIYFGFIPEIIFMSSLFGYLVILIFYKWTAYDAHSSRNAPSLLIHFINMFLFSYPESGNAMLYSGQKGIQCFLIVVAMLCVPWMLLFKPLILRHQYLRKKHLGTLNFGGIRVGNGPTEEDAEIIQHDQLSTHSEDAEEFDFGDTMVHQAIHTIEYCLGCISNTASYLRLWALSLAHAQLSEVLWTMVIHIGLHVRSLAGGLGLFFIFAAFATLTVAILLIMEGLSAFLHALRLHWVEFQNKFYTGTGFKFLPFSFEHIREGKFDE

Compound: Cn1cnc(N)c2ncnc1-2 [3-methyladenine]
- increase in proteolysis after serum removal (WT and PS1 KO cells): only the increased proteolysis in WT cells was blocked

Compound: O=S(=O)(NCCNC/C=C/c1ccc(Br)cc1)c1cccc2cnccc12 [H89]
- effect of pretreatment on the action of isoproterenol on lysosomal pH (PS1KO blastocysts): prevent the action of isoproterenol

Compound: Cl.N [NH4Cl, ammonium chloride]
- MR-Cat B signal (Cat B [1]): minimal
- increase in proteolysis after serum removal (WT and PS1 KO cells): entirely blocked the increase of proteolysis in both cell types
- difference in proteolytic rates between control and PS1-FAD fibroblasts [2]: eliminated the difference in proteolytic rates between the two cell groups
- Bodipy-FL-pepstatin A labeling of Cat D-positive compartments (active Cat D) (Cat D): nearly completely abolished; also recorded: minimal colocalization

Compound: C=CCc1ccccc1OCC(O)CNC(C)C (stereo not shown) [alprenolol]
- effect on elevated lysosomal pH in PS1KO cells (PS1KO blastocysts): did not affect lysosomal pH; also recorded: remains unchanged

Compound: CCN(CC)CCCC(C)Nc1ccnc2cc(Cl)ccc12 (stereo not shown) [chloroquine]
- lysosomal pH of WT blastocysts (WT blastocysts): significantly elevated WT lysosomal pH

Compound: CC(C)(C)NCC(O)c1cc(Cl)c(N)c(Cl)c1 (stereo not shown) [clenbuterol]
- consequences on lysosomal pH and autophagy in PS1-deleted cells (PS1KO blastocysts; PS1-deleted cells, clinically relevant concentrations): desired consequences on lysosomal pH and autophagy
- lysosomal pH after treatment relative to WT lysosomal pH (ANOVA, Dunnet's post-test) (PS1KO blastocysts): did not possess significant difference from WT lysosomal pH; also recorded: did not differ significantly from that of WT lysosomal pH
- effect on elevated lysosomal pH in PS1KO cells (PS1KO blastocysts): normal levels or even hyperacidic levels; also recorded: restored to WT levels
- crossing of the blood brain barrier (BBB) [3]: cross the blood brain barrier

Compound: COc1cc(/C=C/C(=O)CC(=O)/C=C/c2ccc(O)c(OC)c2)ccc1O [curcumin]
- lysosomal pH after treatment relative to WT lysosomal pH (ANOVA, Dunnet's post-test) (PS1KO blastocysts): reduces lysosomal pH in excess of WT acidity

Compound: CC(=O)N[C@@H](CC(C)C)C(=O)N[C@@H](CC(C)C)C(=O)N[C@H](C=O)CCCNC(=N)N [leupeptin]
- LC3 levels in PS1 KO cells (LC3-II; PS1 KO cells, 0.3 mM): did not increase LC3 levels
- LC3-II levels in WT cells (LC3-II; WT cells, rapamycin acute induction, leupeptin 0.3 mM): significantly elevated LC3-II levels and LC3-positive puncta

Compound: CNC[C@H](O)c1cccc(O)c1 [phenylepherine]
- effect on elevated lysosomal pH in PS1KO cells (PS1KO blastocysts): did not affect lysosomal pH; also recorded: remains unchanged

Compound: CC(C)NCC(O)COc1cccc2ccccc12 (stereo not shown) [propranol]
- effect of pretreatment on the action of isoproterenol on lysosomal pH (PS1KO blastocysts): prevent the action of isoproterenol

Compound: Oc1ccc(C=Cc2cc(O)cc(O)c2)cc1 [resveratrol]
- active Cat B in PS1 KO cells (Cat B [4]): partially restoring active Cat B

Compound: COc1ccc(C2CNC(=O)C2)cc1OC1CCCC1 (stereo not shown) [rolipram]
- lysosomal pH after treatment relative to WT lysosomal pH (ANOVA, Dunnet's post-test) (PS1KO blastocysts): did not differ significantly from that of WT lysosomal pH
- lysosomal pH after treatment relative to WT lysosomal pH (ANOVA, Dunnet's post-test) (PS1KO blastocysts; listed as Rolipram): did not possess significant difference from WT lysosomal pH
- effect on elevated lysosomal pH in PS1KO cells (PS1KO blastocysts): decreased lysosomal pH

Compound: tunicamycin
- gel mobility of v-ATPase V0a1 subunit (v-ATPase V0a1 subunit): increase in mobility
